Columns and labels:
[1] = tested on: latent HIV-based retroviral vector in cell line; assay: Screen of small molecule library on cell line containing a latent HIV-based retroviral vector, GFP expression; conditions: different concentrations; FIG. 7
Source text: We screened a library of 6,000 small molecules (library purchased from Chembridge, San Diego) using one of the cell lines containing a latent HIV-based retroviral vector. Viral expression was monitored by GFP expression, as described above. […] The results of a typical induction experiment in which we measured CFP expression in response to different concentrations of the two small molecules (Hit 1 and Hit2) are shown in FIG. 7. The structures of three representative active agents are shown below.

[2] = tested on: latent HIV promoter (LTR-Tat-IRES-GFP vector) in Jurkat-derived cells; assay: Reactivation of latent LTR-Tat-IRES-GFP vector in Jurkat cells/clones, GFP by flow cytometry; format: cell-based; conditions: for ability to reactivate latent HIV expression (GFP-positive cells and mean fluorescence intensity): clones 82, A1, A7, A10, 10 nM TPA, 10 ng/ml TNF-α, 5 μg/ml PHA, 5 μg/ml anti-CD3, 400 nM TSA, 5 μM aza-dC 48 h
Procedure: To obtain a random library of clones containing the vector LTR-Tat-IRES-GFP integrated, Jurkat cells were infected at an MOI (multiplicity of infection) of 0.1 followed by serial dilution and plating in 96-well plates. Individual clones obtained after 3 weeks were analyzed by flow cytometry for GFP expression. For the purification of latently infected cells, Jurkat cells were infected with the LTR-Tat-IRES-GFP viral stock at an MOI of 0.1 and kept in culture for at least 96 h. GFP-negative (GFP^−) and GFP-positive (GFP^+) cells were separated by fluorescence activated cell sorting (FACS) and further cultured. One week later, GFP^− cells were incubated with 10 nM TPA or 10 ng/ml TNF-α for 17 h.
Jurkat cells were grown in RPMI 1640 medium (Mediatech Cellgro, Herndon, Va.) supplemented with 10% fetal bovine serum, 100 U/ml of penicillin, 100 μg/ml of streptomycin, and 2 mM L-glutamine at 37° C. under a 95% air/5% CO2 atmosphere. Peripheral blood mononuclear cells (PBMCs) were cultivated in the same medium supplemented with 100 U/ml human interleukin (hIL)-2 and were phytohemagglutinin (PHA)-stimulated (5 μg/ml) once every two weeks. 293T cells were grown under the same conditions as Jurkat cells in Dulbecco's modification of Eagle's medium (Mediatech Cellgro, Herndon, Va.). 293T cells were routinely transfected with calcium phosphate. Jurkat cells (10^7 cells/0.4 ml serum-free medium) were electroporated in 0.4-cm gap cuvettes at 250 V and […] (Gene Pulser II, Biorad, Hercules, Calif.). Plasmid DNA for transfections was purified with the Qiagen Plasmid Maxi kit, followed by phenol extraction and ethanol precipitation. To test the HIV promoter inducibility, Jurkat-derived clones were incubated for 17 h with 10 nM tetradecanoyl phorbol acetate (TPA), 10 ng/ml TNF-α, 5 μg/ml PHA, 1 μM ionomycin, 5 μg/ml anti-CD3 antibody, 400 nM Trichostatin A (TSA). Incubations with 5 μM aza-dC lasted for 48 h.
(§1) Cells were washed in PBS and resuspended in PBS containing 1% paraformaldehyde. GFP fluorescence was measured with a FACScalibur machine (Becton Dickinson, San Jose, Calif.). A two narameter analysis to distinguish GFP-derived fluorescence from background fluorescence was used: CFP was measured in FL1 and cellular autofluorescence was monitored in FL2. Electronic compensation was applied during analysis. Analysis was gated on live cells according to forward and side scatter. A gate (R2) containing GFP-positive cells was drawn compared to an uninfected control, and the data shown refer to the percentage of cells in R2 or mean fluorescence intensity (MFI) of those cells. Results shown throughout the manuscript are representative three independent experiments, except when libraries of clones were analyzed. Cell sorting was carried out with a FACSVantage (Becton Dickinson, San Jose, Calif.).

[3] = tested on: HIV transcription in latent cell lines; assay: HIV-specific mRNA measurement by TaqMan PCR in latent cell lines; format: cell-based; conditions: clone H2; +TNF-α
Procedure: RNA was isolated using TRIzol (Invitrogen) followed by digestion with RQ1 DNase (Promega). First strand cDNA was synthesized using Superscript II (Invitrogen). Taqman PCR was performed on an ABIprism 7700 detector using the following primer/probe set: primer 1: 5′-[…]-3′ (SEQ ID NO:21); primer 2: 5′-[…]-3′ (SEQ ID NO:22); probe 5′-CTGGTAACTAGAGATCCC-3′ (SEQ LD NO:23). The GAPDH primer/probe set was purchased from Applied Biosystems.
FIG. 1A-C. Enrichment and purification of HIV-latently infected cells by FACS. (A) A schematic representation of our enrichment protocol is shown. See text for details. The percentage of GFP-positive cells obtained after infection (4%) or after TNF-α treatment of GFP-cells (0.06%) is shown. Similar data were obtained with TPA. (B) Clonal cell lines isolated using the procedure described above were analyzed for CFP expression under basal and stimulated conditions (24 hr treatment with TNF-α). (C) mRNA levels were measured for HIV and for GAPDH using TaqMan PCR in untreated and TNF-α-treated cell lines. Results are expressed as a percentage of mRNA levels measured in Jurkat cells acutely infected with HIVNL4-3 (day 6 post-infection). Clone A72 is infected with an LTR-CFP construct (Jordan et al. (2001, supra), clone H2 is infected with the LTR-Tat-IRS-GFP vector while clones F11 and G10 are infected with HIV-R7/E^−/GFP.

[4] = tested on: latent full-length HIV provirus (HIV-R7/E-/GFP) in Jurkat clones; assay: HIV-specific p24 in culture supernatants of latent HIV-R7/E-/GFP clones; format: cell-based; conditions: culture supernatant; for p24 (pg/ml): + TNF-α
Source text: When the culture supernatants of the same clones were examined for HIV-specific p24 expression, no or low picogram amounts could be detected under basal conditions (Table I).

[5] = tested on: latent full-length HIV provirus (HIV-R7/E-/GFP) in Jurkat clones; assay: Western blotting of HIV-specific proteins in latent HIV-R7/E-/GFP clones; format: cell-based; conditions: several clones; particularly gag p55 precursor
Source text: Levels of viral mRNA after activation were similar to those measured after a productive HIV infection (compare clones F11 and G10 with NL4-3, FIG. 1C).

[6] = tested on: latent full-length HIV provirus (HIV-R7/E-/GFP) in Jurkat cells; assay: GFP expression in Jurkat cells/clones latently infected with full-length HIV-R7/E-/GFP, flow cytometry; format: cell-based; conditions: for GFP Signal (MFI) / GFP-Positive (%): + TNF-α
Procedure: as §1
The HIV molecular clone (HIV-R7/E^−1/GFP) was constructed by introducing a frameshift mutation in the env gene (by filling-in NdeI site with T4 polymerase) in the backbone of HIV-R7/3/GCF. Bieniasz and Cullen (2000) J. Virol. 74:9868-9877.
To confirm that HIV Latency can be established in the context of a full length provirus, we used a recombinant HIV molecular clone containing the GFP open reading frame in place of the Nef gene (Bieniasz and Cullen (2000) J. Virol. 74:9868-9877) (HIV-R7/E^−/GFP) (FIG. 5A). To restrict our analysis to a single infection cycle, the env gene was suppressed by introduction of a frameshift mutation. […]. We infected a culture of the lymphocytic cell line Jurkat with viral particles containing this HIV genome and used differential fluorescence-activated cell sorting based on GFP expression to isolate GFP-negative cells by FACS 4 days after infection (FIG. 5B). Based on our previous experiments, we predicted that this population harbored both uninfected cells and cells with transcriptionally silenced proviruses. To activate HIV expression, we treated this population with TNF-α and observed that a small fraction of the cell population (1.9%) became positive. These activated cells were purified by FACS based on GFP expression levels (FIG. 5B). These cells were both grown as a group and individually sorted for further characterization.
FIG. 5. Establishment of latently infected cell lines with a full-length HIV provirus. (A) genome organization of a molecular clone of HIV encoding GFP and containing a frameshift mutation in env. (B) Schematic representation of protocol for enrichment of latently-infected cells after infection of Jurkat cells with HIV-R7/E^−/GFP) (see text for detail). (C) Clonal cell lines isolated using the procedure described above were analyzed for GFP expression under basal and stimulated conditions (24 hr treatment with TNF-α).

CC1(C)Cc2ccccc2C(NNC(=O)c2ccccn2)=N1 [Hit2]
induction of HIV expression as measured by increased GFP expression [1]: reproducibly lead to an induction of HIV expression

COc1cc(/C=N/NC(=O)c2cc(-c3ccccc3)n[nH]2)cc(OC)c1O [Hit 1]
induction of HIV expression as measured by increased GFP expression [1]: reproducibly lead to an induction of HIV expression

CC(/C=C/C(=O)NO)=C\[C@@H](C)C(=O)c1ccc(N(C)C)cc1 [Trichostatin A]
ability to reactivate latent HIV expression (GFP-positive cells and mean fluorescence intensity) [2]: activated expression but to a lesser extent than NT-κB activators and in only some cell lines

Nc1ncn([C@H]2C[C@H](O)[C@@H](CO)O2)c(=O)n1 [aza-dC, 5-axa-2-deoxycytidine]
ability to reactivate latent HIV expression (GFP-positive cells and mean fluorescence intensity) [2]: little effect

phytohemagglutinin [PHA]
ability to reactivate latent HIV expression (GFP-positive cells and mean fluorescence intensity) [2]: induced HIV expression

tetradecanoyl phorbol acetate [TPA]
GFP expression of individual latent clones after treatment ([2]; clonal cell lines 4 weeks after isolation): all clones were activated
ability to reactivate latent HIV expression (GFP-positive cells and mean fluorescence intensity) [2]: strongest inducer tested

tumor necrosis factor alpha [TNF-α]
HIV mRNA levels, activated versus basal conditions [3]: activation of HIV transcription
p24 (pg/ml) ([4]; Clone 6.3): 10,100 ± 4,573 pg/ml
p24 (pg/ml) ([4]; Clone 8.4): 32,967 ± 10,537 pg/ml
p24 (pg/ml) ([4]; Clone 9.2): 41,067 ± 9,100 pg/ml
p24 (pg/ml) ([4]; Clone 10.6): 85,500 ± 5,981 pg/ml
p24 (pg/ml) ([4]; Clone 15.4): 6,066 ± 1,960 pg/ml
increase in p24 measurement versus basal conditions ([4]; several representative clones): greater than a thousand-fold increase
HIV protein expression by western blotting [5]: dramatic increase in HIV protein expression
ability to reactivate latent HIV expression (GFP-positive cells and mean fluorescence intensity) [2]: induced HIV expression
GFP Signal (MFI) ([6]; Clone 6.3): 135 ± 43 MFI
GFP-Positive (%) ([6]; Clone 6.3): 27 ± 9%
GFP Signal (MFI) ([6]; Clone 8.4): 488 ± 74 MFI
GFP-Positive (%) ([6]; Clone 8.4): 77 ± 6%
GFP Signal (MFI) ([6]; Clone 9.2): 522 ± 61 MFI
GFP-Positive (%) ([6]; Clone 9.2): 75 ± 7%
GFP Signal (MFI) ([6]; Clone 10.6): 645 ± 45 MFI
GFP-Positive (%) ([6]; Clone 10.6): 96 ± 1%
GFP Signal (MFI) ([6]; Clone 15.4): 188 ± 34 MFI
GFP-Positive (%) ([6]; Clone 15.4): 46 ± 6%
fraction of the cell population that became GFP positive ([6]; Jurkat infected with HIV-R7/E-/GFP, sorted GFP-negative population): 1.9%
HIV expression (fraction of GFP positive cells and mean fluorescence intensity) in individual clones ([6]; individual HIV-R7/E-/GFP clones): HIV expression was increased in all clones

Reference: patent US7544467B2, “Method for the identification of compounds capable of activating latent human immunodeficiency virus (HIV)” (The J. David Gladstone Institutes, priority 2001, dated 2009)
